Data as given in ChEMBL document CHEMBL1152667, “Synthesis and radiopharmacological investigation of 3-[4'-[(18)F]fluorobenzylidene]indolin-2-one as possible tyrosine kinase inhibitor” (Bioorg Med Chem, 2009).

Experiments:
[1] = Ratio of drug level in lung to blood in Wistar rat at 1.7 MBq, iv administered as single dose measured after 60 mins post-injection; assay type: ADME, organism-based
Femur [2] = test: Biodistribution in Wistar rat femur at 1.7 MBq, iv administered as single dose measured after 1 min post-injection by gamma counting; assay type: ADME, organism-based; details: in vivo
Adrenal gland [3] = test: Biodistribution in Wistar rat adrenal gland assessed as standard uptake value at 1.7 MBq, iv administered as single dose measured after 5 mins post-injection by gamma counting; assay type: ADME, organism-based; details: in vivo
Intestine = test: Biodistribution in Wistar rat intestine at 1.7 MBq, iv administered as single dose measured after 60 mins post-injection by gamma counting; assay type: ADME, organism-based; details: in vivo, 1 h
[4] = Metabolic stability in Wistar rat blood assessed as compound remaining at 30 MBq, iv after 1 min by radio-HPLC analysis; assay type: ADME, organism-based; details: read-out: Stability
Pancreas [5] = test: Biodistribution in Wistar rat pancreas assessed as standard uptake value at 1.7 MBq, iv administered as single dose measured after 60 mins post-injection by gamma counting; assay type: ADME, organism-based; details: in vivo, 1 h
[6] = Ratio of drug level in heart to blood in Wistar rat at 1.7 MBq, iv administered as single dose measured after 60 mins post-injection; assay type: ADME, organism-based
[7] = Metabolic stability in Wistar rat blood assessed as compound remaining at 0.5 MBq after 60 mins by radio-HPLC analysis; assay type: ADME, tissue-based; details: read-out: Stability
[8] = Biodistribution in Wistar rat stomach at 1.7 MBq, iv administered as single dose measured after 60 mins post-injection by gamma counting; assay type: ADME, organism-based; details: in vivo, 1 h
Pancreas [9] = test: Biodistribution in Wistar rat pancreas assessed as standard uptake value at 1.7 MBq, iv administered as single dose measured after 10 mins post-injection by gamma counting; assay type: ADME, organism-based; details: in vivo
Blood = test: Biodistribution in Wistar rat blood assessed as standard uptake value at 1.7 MBq, iv administered as single dose measured after 10 mins post-injection by gamma counting; assay type: ADME, organism-based; details: in vivo
Thymus [10] = test: Biodistribution in Wistar rat thymus at 1.7 MBq, iv administered as single dose measured after 30 mins post-injection by gamma counting; assay type: ADME, organism-based; details: in vivo, 0.5 h
Testes [11] = test: Biodistribution in Wistar rat testes at 1.7 MBq, iv administered as single dose measured after 60 mins post-injection by gamma counting; assay type: ADME, organism-based, Testis; details: in vivo, 1 h
Brain [12] = test: Biodistribution in Wistar rat brain assessed as standard uptake value at 1.7 MBq, iv administered as single dose measured after 60 mins post-injection by gamma counting; assay type: ADME, organism-based; details: in vivo, 1 h
Muscle tissue [13] = test: Biodistribution in Wistar rat muscle assessed as standard uptake value at 1.7 MBq, iv administered as single dose measured after 30 mins post-injection by gamma counting; assay type: ADME, organism-based; details: in vivo, 0.5 h
Femur [14] = test: Biodistribution in Wistar rat femur assessed as standard uptake value at 1.7 MBq, iv administered as single dose measured after 5 mins post-injection by gamma counting; assay type: ADME, organism-based; details: in vivo
[15] = Biodistribution in Wistar rat urine at 1.7 MBq, iv administered as single dose measured after 1 min post-injection by gamma counting; assay type: ADME, organism-based; details: in vivo
Spleen [16] = test: Biodistribution in Wistar rat spleen at 1.7 MBq, iv administered as single dose measured after 5 mins post-injection by gamma counting; assay type: ADME, organism-based; details: in vivo
[17] = Biodistribution in Wistar rat adipose tissue assessed as standard uptake value at 1.7 MBq, iv administered as single dose measured after 1 min post-injection by gamma counting; assay type: ADME, organism-based; details: in vivo
Liver [18] = test: Biodistribution in Wistar rat liver at 1.7 MBq, iv administered as single dose measured after 1 min post-injection by gamma counting; assay type: ADME, organism-based; details: in vivo
Spleen [19] = test: Biodistribution in Wistar rat spleen assessed as standard uptake value at 1.7 MBq, iv administered as single dose measured after 5 mins post-injection by gamma counting; assay type: ADME, organism-based; details: in vivo
Liver [20] = test: Biodistribution in Wistar rat liver assessed as standard uptake value at 1.7 MBq, iv administered as single dose measured after 60 mins post-injection by gamma counting; assay type: ADME, organism-based; details: in vivo, 1 h
Lung [21] = test: Biodistribution in Wistar rat lung assessed as standard uptake value at 1.7 MBq, iv administered as single dose measured after 30 mins post-injection by gamma counting; assay type: ADME, organism-based; details: in vivo, 0.5 h
Thymus [22] = test: Biodistribution in Wistar rat thymus at 1.7 MBq, iv administered as single dose measured after 10 mins post-injection by gamma counting; assay type: ADME, organism-based; details: in vivo
Brain [23] = test: Biodistribution in Wistar rat brain at 1.7 MBq, iv administered as single dose measured after 60 mins post-injection by gamma counting; assay type: ADME, organism-based; details: in vivo, 1 h
Brain [24] = test: Biodistribution in Wistar rat brain at 1.7 MBq, iv administered as single dose measured after 30 mins post-injection by gamma counting; assay type: ADME, organism-based; details: in vivo, 0.5 h
Femur [25] = test: Biodistribution in Wistar rat femur at 1.7 MBq, iv administered as single dose measured after 5 mins post-injection by gamma counting; assay type: ADME, organism-based; details: in vivo
Testes [26] = test: Biodistribution in Wistar rat testes at 1.7 MBq, iv administered as single dose measured after 5 mins post-injection by gamma counting; assay type: ADME, organism-based, Testis; details: in vivo
Pancreas [27] = test: Biodistribution in Wistar rat pancreas assessed as standard uptake value at 1.7 MBq, iv administered as single dose measured after 5 mins post-injection by gamma counting; assay type: ADME, organism-based; details: in vivo
Brain [28] = test: Biodistribution in Wistar rat brain assessed as standard uptake value at 1.7 MBq, iv administered as single dose measured after 1 min post-injection by gamma counting; assay type: ADME, organism-based; details: in vivo
Kidney [29] = test: Biodistribution in Wistar rat kidney at 1.7 MBq, iv administered as single dose measured after 5 mins post-injection by gamma counting; assay type: ADME, organism-based; details: in vivo
Muscle tissue [30] = test: Biodistribution in Wistar rat muscle assessed as standard uptake value at 1.7 MBq, iv administered as single dose measured after 5 mins post-injection by gamma counting; assay type: ADME, organism-based; details: in vivo
[31] = Biodistribution in Wistar rat hair/skin assessed as standard uptake value at 1.7 MBq, iv administered as single dose measured after 5 mins post-injection by gamma counting; assay type: ADME, organism-based; details: in vivo
[32] = Biodistribution in Wistar rat thyroid gland assessed as standard uptake value at 1.7 MBq, iv administered as single dose measured after 5 mins post-injection by gamma counting; assay type: ADME, organism-based; details: in vivo
[33] = Biodistribution in Wistar rat hair/skin assessed as standard uptake value at 1.7 MBq, iv administered as single dose measured after 1 min post-injection by gamma counting; assay type: ADME, organism-based; details: in vivo
[34] = Biodistribution in Wistar rat thyroid gland at 1.7 MBq, iv administered as single dose measured after 60 mins post-injection by gamma counting; assay type: ADME, organism-based; details: in vivo, 1 h
Harderian gland [35] = test: Biodistribution in Wistar rat harderian gland at 1.7 MBq, iv administered as single dose measured after 60 mins post-injection by gamma counting; assay type: ADME, organism-based; details: in vivo, 1 h
[36] = Biodistribution in Wistar rat thyroid gland at 1.7 MBq, iv administered as single dose measured after 30 mins post-injection by gamma counting; assay type: ADME, organism-based; details: in vivo, 0.5 h
Harderian gland [37] = test: Biodistribution in Wistar rat harderian gland assessed as standard uptake value at 1.7 MBq, iv administered as single dose measured after 1 min post-injection by gamma counting; assay type: ADME, organism-based; details: in vivo
Adrenal gland [38] = test: Biodistribution in Wistar rat adrenal gland at 1.7 MBq, iv administered as single dose measured after 1 min post-injection by gamma counting; assay type: ADME, organism-based; details: in vivo
Kidney [39] = test: Biodistribution in Wistar rat kidney at 1.7 MBq, iv administered as single dose measured after 1 min post-injection by gamma counting; assay type: ADME, organism-based; details: in vivo
Lung [40] = test: Biodistribution in Wistar rat lung at 1.7 MBq, iv administered as single dose measured after 5 mins post-injection by gamma counting; assay type: ADME, organism-based; details: in vivo
Spleen [41] = test: Biodistribution in Wistar rat spleen at 1.7 MBq, iv administered as single dose measured after 1 min post-injection by gamma counting; assay type: ADME, organism-based; details: in vivo

## O=C1Nc2ccccc2/C1=C/c1ccc([18F])cc1
[1]
  Kp at 1 h: 1.4
Femur [2]
  Drug uptake: 0.44 %ID
Adrenal gland [3]
  SUV: 5.71%
Intestine
  Drug uptake: 30.16 %ID
[4]
  remaining at 1 min: 70%
Pancreas [5]
  SUV: 0.3%
[6]
  Kp at 1 h: 1.8
[7]
  remaining at 1 h, 0.5 MBq: 84%
[8]
  Drug uptake: 0.6 %ID
Pancreas [9]
  SUV: 1.13%
Blood
  SUV: 0.47%
Thymus [10]
  Drug uptake: 0.08 %ID
Testes [11]
  Drug uptake: 0.24 %ID
Brain [12]
  SUV: 0.18%
Muscle tissue [13]
  SUV: 0.45%
Femur [14]
  SUV: 0.64%
[15]
  Drug uptake: 3.97 %ID
Spleen [16]
  Drug uptake: 0.23 %ID
[17]
  SUV: 0.7%
Liver [18]
  Drug uptake: 17.16 %ID
Spleen [19]
  SUV: 0.79%
Liver [20]
  SUV: 1.3%
Lung [21]
  SUV: 0.47%
Thymus [22]
  Drug uptake: 0.23 %ID
Brain [23]
  Drug uptake: 0.2 %ID
Brain [24]
  Drug uptake: 0.44 %ID
Femur [25]
  Drug uptake: 0.35 %ID
Testes [26]
  Drug uptake: 0.38 %ID
Pancreas [27]
  SUV: 1.66%
Brain [28]
  SUV: 2.84%
Kidney [29]
  Drug uptake: 2.51 %ID
Muscle tissue [30]
  SUV: 0.83%
[31]
  SUV: 0.92%
[32]
  SUV: 0.99%
[33]
  SUV: 0.67%
[34]
  Drug uptake: 0.01 %ID
Harderian gland [35]
  Drug uptake: 0.06 %ID
[36]
  Drug uptake: 0.03 %ID
Harderian gland [37]
  SUV: 1.92%
Adrenal gland [38]
  Drug uptake: 0.15 %ID
Kidney [39]
  Drug uptake: 3.13 %ID
Lung [40]
  Drug uptake: 1.02 %ID
Spleen [41]
  Drug uptake: 0.31 %ID
